According to US20170354655A1, “TLR INHIBITOR AND BRUTON'S TYROSINE KINASE INHIBITOR COMBINATIONS” (Pharmacyclics LLC, priority 2014, published 2017):

Key:
Type in all cases: cell-based
[1] = tested on: TMD8 cells; test: Combined drug treatment, CellTiter-Glo cell viability assay in TMD8 cell line; details: for luminescent signal (CellTiter-Glo): test ODN 1 μM or chloroquine 10 μM, 3 days; for average CI value for the ibrutinib and chloroquine combination: CalcuSyn; for synergy score for the ibrutinib and chloroquine combination: Chalice Analyzer
Experimental: 200 μl of TMD8 wt cells (1.0×10^4 cells) at 5.0×10^4 cells/ml was plated into each well of a 96-well plate. The cells were grown in RPMI-10P medium.
The TLR9 antagonists used for this experiment included ODN 4084-F, ODN INH-1, ODN INH-18, and ODN TTAGGG. […] The TLR9 agonists used for this experiment included ODN 2006, ODN 2216, and ODN 2395. The TLR9 agonists were used to stimulate TLR signaling. Chloroquine is a non-specific TLR antagonist.
The stock solutions for the TLR9 antagonists and the TLR9 agonists were each prepared at 500 μM concentration. The stock solution for chloroquine diphosphate was prepared at 50 mM concentration.
The 96-W plate was then incubated for 3 days. Cell viability was examined using a CellTiter-Glo® assay.
(§1) A 40 μL aliquot of CellTiter-Glo® reagent was added directly into each well of the 96-W plate. The plate was then shaken on a Shaker (Labsystem Wellmix) at speed 5 for 10-20 min at room temperature. Next, about 100 μL of the mixed medium was transferred to a white, non-transparent, flat bottom 96-W plate for assaying. A Flexstation 3 luminometer was used for detecting and measuring the luminescent signals. Measurements were taken at room temperature.
CellTiter-Glo® reagents were thawed prior to use. Cells pre-plated onto a second 96-W plate and incubated at room temperature for 30 minutes were used for calibration purposes.
The luminescent measurements were subsequently processed and analyzed using CalcuSyn (CI) and Chalice Analyzer (synergy score). CalcuSyn performs the multiple drug dose-effect calculations using the Median Effect methods described by T-C Chou and P. Talalay in “Analysis of combined drug effects: a new look at a very old problem,” Trends Pharmacol. Sci. 4:450-454 (1983). In general, the resulting combination index (CI) obtained from the Chou-Talalay method defines quantitatively for additive effect (CI=1), synergism (CI<1), and antagonism (CI>1) in drug combinations. […] Biotechnol. 27(7):659-666 (2009).
(§2) Cell growth effects were determined by the CellTiter-Glo® luminescent cell viability assay (Promega). The combination index (C.I.), a drug interactivity measurement was calculated with Calcusyn. Synergy scores were calculated by the Chalice Analyzer (Horizon CombinatoRx). ApoDETECT Annexin V-FITC Kit was used to detect apoptotic cell population. LC3B antibody (Cell Signaling) was used for Western blot analysis to detect autophagic marker LC3B-II. HBL-1 cells were plated in MethoCult (StemCell Technologies) and number of colonies was counted 7 days after drug treatment to determine the effect on colony formation. TLR related gene expression was determined by using RT^2 Profiler PCR Array (Qiagen).

[2] = tested on: OCI-LY10 cells; test: Combined drug treatment, CellTiter-Glo cell viability assay in OCI-LY10 cell line; details: for synergy score for the chloroquine/ibrutinib combination: LY10 cells
Experimental: as §1
(§3) The luminescent measurements were subsequently processed and analyzed using CalcuSyn (CI) and Chalice Analyzer (synergy score). […] In general, the resulting combination index (CI) obtained from the Chou-Talalay method defines quantitatively for additive effect (CI=1), synergism (CI<1), and antagonism (CI>1) in drug combinations. […] Biotechnol.
as §2

[3] = tested on: HBL1 cells; test: Combined drug treatment, CellTiter-Glo cell viability assay in HBL1 cell line
Experimental: as §1, §3, §2

CCN(CC)CCCC(C)Nc1ccnc2cc(Cl)ccc12 (stereo not shown) [Chloroquine, chloroquine]
luminescent signal (CellTiter-Glo) ([1]; Control (no TLR9 agonist), ibrutinib 0 nM): 275515 | luminescent signal (CellTiter-Glo) ([1]; Control (no TLR9 agonist), ibrutinib 0.0003 nM): 264724 | luminescent signal (CellTiter-Glo) ([1]; Control (no TLR9 agonist), ibrutinib 0.0013 nM): 265058 | luminescent signal (CellTiter-Glo) ([1]; Control (no TLR9 agonist), ibrutinib 0.0064 nM): 271348 | luminescent signal (CellTiter-Glo) ([1]; Control (no TLR9 agonist), ibrutinib 0.032 nM): 276679 | luminescent signal (CellTiter-Glo) ([1]; Control (no TLR9 agonist), ibrutinib 0.16 nM): 250469 | luminescent signal (CellTiter-Glo) ([1]; Control (no TLR9 agonist), ibrutinib 0.8 nM): 177291 | luminescent signal (CellTiter-Glo) ([1]; Control (no TLR9 agonist), ibrutinib 4 nM): 86168 | luminescent signal (CellTiter-Glo) ([1]; Control (no TLR9 agonist), ibrutinib 20 nM): 78916 | luminescent signal (CellTiter-Glo) ([1]; Control (no TLR9 agonist), ibrutinib 100 nM): 61700 | luminescent signal (CellTiter-Glo) ([1]; TLR9 agonist ODN 2006 1 μM, ibrutinib 0 nM): 275829 | luminescent signal (CellTiter-Glo) ([1]; TLR9 agonist ODN 2006 1 μM, ibrutinib 0.0003 nM): 258871 | luminescent signal (CellTiter-Glo) ([1]; TLR9 agonist ODN 2006 1 μM, ibrutinib 0.0013 nM): 250534 | luminescent signal (CellTiter-Glo) ([1]; TLR9 agonist ODN 2006 1 μM, ibrutinib 0.0064 nM): 249082 | luminescent signal (CellTiter-Glo) ([1]; TLR9 agonist ODN 2006 1 μM, ibrutinib 0.032 nM): 239360 | luminescent signal (CellTiter-Glo) ([1]; TLR9 agonist ODN 2006 1 μM, ibrutinib 0.16 nM): 247058 | luminescent signal (CellTiter-Glo) ([1]; TLR9 agonist ODN 2006 1 μM, ibrutinib 0.8 nM): 138546 | luminescent signal (CellTiter-Glo) ([1]; TLR9 agonist ODN 2006 1 μM, ibrutinib 4 nM): 79843 | luminescent signal (CellTiter-Glo) ([1]; TLR9 agonist ODN 2006 1 μM, ibrutinib 20 nM): 67694 | luminescent signal (CellTiter-Glo) ([1]; TLR9 agonist ODN 2006 1 μM, ibrutinib 100 nM): 62288 | luminescent signal (CellTiter-Glo) ([1]; TLR9 agonist ODN 2216 1 μM, ibrutinib 0 nM): 203015 | luminescent signal (CellTiter-Glo) ([1]; TLR9 agonist ODN 2216 1 μM, ibrutinib 0.0003 nM): 193567 | luminescent signal (CellTiter-Glo) ([1]; TLR9 agonist ODN 2216 1 μM, ibrutinib 0.0013 nM): 229545 | luminescent signal (CellTiter-Glo) ([1]; TLR9 agonist ODN 2216 1 μM, ibrutinib 0.0064 nM): 200219 | luminescent signal (CellTiter-Glo) ([1]; TLR9 agonist ODN 2216 1 μM, ibrutinib 0.032 nM): 199458 | luminescent signal (CellTiter-Glo) ([1]; TLR9 agonist ODN 2216 1 μM, ibrutinib 0.16 nM): 207276 | luminescent signal (CellTiter-Glo) ([1]; TLR9 agonist ODN 2216 1 μM, ibrutinib 0.8 nM): 115898 | luminescent signal (CellTiter-Glo) ([1]; TLR9 agonist ODN 2216 1 μM, ibrutinib 4 nM): 65959 | luminescent signal (CellTiter-Glo) ([1]; TLR9 agonist ODN 2216 1 μM, ibrutinib 20 nM): 48838 | luminescent signal (CellTiter-Glo) ([1]; TLR9 agonist ODN 2216 1 μM, ibrutinib 100 nM): 44662 | luminescent signal (CellTiter-Glo) ([1]; TLR9 agonist ODN 2395 1 μM, ibrutinib 0 nM): 170080 | luminescent signal (CellTiter-Glo) ([1]; TLR9 agonist ODN 2395 1 μM, ibrutinib 0.0003 nM): 168027 | luminescent signal (CellTiter-Glo) ([1]; TLR9 agonist ODN 2395 1 μM, ibrutinib 0.0013 nM): 177301 | luminescent signal (CellTiter-Glo) ([1]; TLR9 agonist ODN 2395 1 μM, ibrutinib 0.0064 nM): 170957 | luminescent signal (CellTiter-Glo) ([1]; TLR9 agonist ODN 2395 1 μM, ibrutinib 0.032 nM): 167073 | luminescent signal (CellTiter-Glo) ([1]; TLR9 agonist ODN 2395 1 μM, ibrutinib 0.16 nM): 156507 | luminescent signal (CellTiter-Glo) ([1]; TLR9 agonist ODN 2395 1 μM, ibrutinib 0.8 nM): 100658 | luminescent signal (CellTiter-Glo) ([1]; TLR9 agonist ODN 2395 1 μM, ibrutinib 4 nM): 69482 | luminescent signal (CellTiter-Glo) ([1]; TLR9 agonist ODN 2395 1 μM, ibrutinib 20 nM): 59032 | luminescent signal (CellTiter-Glo) ([1]; TLR9 agonist ODN 2395 1 μM, ibrutinib 100 nM): 55950 | synergy with ibrutinib (in words) ([1]; TMD8 cells, whether or not TLR agonist was present): Synergy was observed | average CI value for the ibrutinib and chloroquine combination ([1]; TMD8 cells, with agonists): 0.11 | synergy score for the ibrutinib and chloroquine combination ([1]; TMD8 cells, with agonists): 4.22 | average CI value for the ibrutinib and chloroquine combination ([1]; TMD8 cells, without agonists): 0.40 | synergy score for the ibrutinib and chloroquine combination ([1]; TMD8 cells, without agonists): 3.48 | CI value for the chloroquine/ibrutinib combination ([2]; LY10, with agonist ODN2216): 0.59 | CI value for the chloroquine/ibrutinib combination ([2]; LY10, without agonist ODN2216): 0.50 | synergy score for the chloroquine/ibrutinib combination ([2]; with agonist ODN2216): 2.63 | synergy score for the chloroquine/ibrutinib combination ([2]; without agonist ODN2216): 2.44 | synergy with ibrutinib (in words) ([2]; OCI-LY10 cells): Synergy was observed | synergy with ibrutinib (in words) [3]: Synergy was observed | CI value for the chloroquine/ibrutinib combination ([3]; with agonist ODN2216): 0.35 | synergy score for the chloroquine/ibrutinib combination ([3]; with agonist ODN2216): 3.5 | CI value for the chloroquine/ibrutinib combination ([3]; without agonist ODN2216): 0.56 | synergy score for the chloroquine/ibrutinib combination ([3]; without agonist ODN2216): 3.03
